Data from US20040014676A1, “SRC kinase inhibitors useful for treating osteoporosis” (priority 2001, published 2004).
pIC50: −log10 of the molar value.

Target: T1, Src kinase (Homo sapiens, UniProt P12931)
T1 construct: purchased Upstate Bioteolnology (sic; Upstate Biotechnology); later HMR stock 27597-019E1 #14-117
Assay: Phosphorylation assay of Src kinase inhibitors (radiometric, 96 well filter plate)
Type: biochemical
Details: duplicates, tested in the range of 400-0.098 µM; 10 µM peptide substrate (FIYGAFKKKKNH2), 5 µM unlabeled ATP, room temperature 30 min; read-out: IC50
Outline: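 Radiometric filter-plate assay: Src kinase (1:100 dilution) was incubated with 10 μM peptide FIYGAFKKK-NH2, 5 μM unlabeled ATP and radiolabeled ATP for 30 min at room temperature. Reactions were stopped with 150 mM H3PO4, the peptide was captured on phosphocellulose and scintillation counted. Ki values were determined for some compounds.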

T1 sequence (P12931 whole entry): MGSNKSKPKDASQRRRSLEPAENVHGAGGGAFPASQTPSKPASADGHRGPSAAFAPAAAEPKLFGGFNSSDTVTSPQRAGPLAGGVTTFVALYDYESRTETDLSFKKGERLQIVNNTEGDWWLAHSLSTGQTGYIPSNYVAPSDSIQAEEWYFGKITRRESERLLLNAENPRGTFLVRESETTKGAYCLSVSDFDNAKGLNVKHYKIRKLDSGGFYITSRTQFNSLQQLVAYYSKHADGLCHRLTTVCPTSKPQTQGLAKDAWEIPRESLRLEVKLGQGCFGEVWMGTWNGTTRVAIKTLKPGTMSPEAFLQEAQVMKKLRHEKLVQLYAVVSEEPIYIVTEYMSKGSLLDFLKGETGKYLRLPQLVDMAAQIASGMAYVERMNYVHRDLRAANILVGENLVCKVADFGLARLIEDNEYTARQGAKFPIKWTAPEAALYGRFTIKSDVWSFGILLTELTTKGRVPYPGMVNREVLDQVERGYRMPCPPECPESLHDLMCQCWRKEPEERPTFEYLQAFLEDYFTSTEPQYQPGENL

SMILES | pIC50
CN(CCCCOc1cc2ccccc2cc1C(=O)NCC(N)=O)C(=O)C(N)Cc1csc2ccccc12 (centres unmarked) [Example 153, 3-[[[4-[3-(BENZOTHIOPHEN-3-YL)-2- AMINO-1-OXO]PROPYL](N-METHYL)- AMINO]BUTOXY]-NAPHTHALENE-2- (N-ACETAMIDO)CARBOXAMIDE] | 6.48
CCNC(=O)CNC(=O)c1cc2ccccc2cc1OCCCCN(C)C(=O)C(N)Cc1csc2ccccc12 (centres unmarked) [Example 154, 3-[[[4-[3-(BENZOTHIOPHEN-3-YL)-2- AMINO-1-OXO]PROPYL](N-METHYL)- AMINO]BUTOXY]-NAPHTHALENE-2- [(N-(N-ETHYL)ACETAMIDO]- CARBOXAMIDE] | 5.40
